Results from US11220482B2, “Aminopyridinemethanol compounds and their use” (UNIVERSITE AMIENS PICARDIE JULES VERNE, priority 2017, dated 2022).
Like-named read-outs stand apart in the source and are kept apart here. Values belong to the compound of their own block, whether it stands above or below them.

Tests used:
[1] = tested on: P. falciparum W2; assay: P. falciparum growth inhibition assay, second round (SYBR Green I, ICEstimator); format: cell-based; conditions: Plasmodium falciparum, 48 h
[2] = tested on: P. falciparum 3D7; assay: as above; format: cell-based, Plasmodium falciparum; conditions: Plasmodium falciparum, 3D7, 48 h
[3] = tested on: P. falciparum D6, W2 and 3D7 strains; conditions: cited from earlier work
[4] = tested on: Salmonella strains; assay: Bacterial reverse mutation assay (Ames test), overall conclusion; format: cell-based, S. typhimurium; conditions: all tested doses, absence or presence of the metabolizing mixture
Procedure: Five strains of S. typhimurium were used. […] An additional strain has been chosen to detect cross-linking mutagens, hydrazines and oxidative agents: TA102, which have an AT base pair at the primary reversion site. Salmonella tester strains were gifts from Prof. B. N. Ames (Berkeley, Calif., USA). They were stored at −80° C. and regularly checked for genetic markers.
Few crystals of the frozen working strains were taken with a sterile pipette, and seeded in 10 mL of nutrient broth (NB No 2, Oxoid). Strains were grown overnight at 37° C. with shaking in Nutrient Broth No. 2, with ampicillin (25 μg/mL) for TA1535, TA97a, TA98, and TA 100, or ampicillin (25 μg/mL) plus tetracyclin (2 μg/mL) for TA 102. At the end of the incubation period, 0.1 mL of each overnight culture was mixed to 0.1 mL S9 Mix or 0.1 mL phosphate-buffered saline (PBS, pH 7.4) in 5 mL plastic tubes and various volumes of the tested samples were added to the mixtures. Each experiment included triplicate plates of four tested doses. A solvent (DMSO, 10 μL) control was added to determine the spontaneous frequency of revertants (quadruple plates). Five positive controls were also included to ensure the performance of the tester strains and the S9 Mix. […] After hardening, the plates were incubated at 37° C. for 48 hours.
At the end of the incubation period, revertants were counted with a laser colony counter equipped with a bacterial enumeration program (Spiral System Instrument Inc., Bethesda, Md., USA).
The Dunnett test was performed to determine a significant difference between the mean number of induced revertants and the mean number of spontaneous revertants.

[5] = tested on: Plasmodium falciparum 3D7; assay: Plasmodium falciparum susceptibility assay, first round (SYBR Green I); format: cell-based; conditions: 3D7, first round, 48-h incubation, strain susceptible to CQ, decreased susceptibility to MQ, read-out: IC50 (nM) Plasmodium falciparum 3D7 (converted)
[6] = tested on: S. typhimurium TA102
[7] = tested on: S. typhimurium TA97a
[8] = tested on: S. typhimurium TA100
[9] = tested on: CHO-K1 cells; assay: In vitro micronucleus assay, short-term exposure
Summary of the method: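 Micronuclei were scored in 1000 binucleated cells per well in duplicate wells. Cytostasis came from CBPI over 500 cells. Doses were compared with the negative control by χ2.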

[10] = tested on: S. typhimurium TA1535
[11] = tested on: CHO-K1 cells; conditions: Chinese hamster, 24 h
Procedure: All the assays were conducted in duplicate. The CHO-K1 cells, suspended in Mac Coy's 5A medium, were transferred into Labteck wells at a concentration of 100,000 cells/mL, and incubated for 24 hours at 37° C. in CO2 (5%).
The test was performed without metabolic activation: the test substances were added into cell cultures at concentrations previously defined. […] After 24 hours of incubation at 37° C. in CO2 (5%), the culture medium was removed, the cells were rinsed with phosphate buffered saline (PBS), and then returned in culture medium containing […] of cytochalasine B. After a 24-hour incubation period at 37° C., cells were rinsed with phosphate buffered saline (PBS), fixed with methanol and stained with 10% Giemsa for 20 minutes.
The analysis of results was performed under a microscope at ×1000 magnification. The antiproliferative activity of test substances was estimated by counting the number of binucleated cells relative to the number of mononucleated cells on a total of 500 cells for each dose (250 cells counted per well). The proliferation index (Cytokinesis Blocked Proliferative Index CBPI) was calculated using the following formula:
The cytostasis index (CI %), i.e. the percentage of cell replication inhibition, was calculated using the following formula: CI %−100−{100×(CBPItest material−1)/(CBPIsolvent control−1)}
The rates of micronuclei were evaluated for the presence of independent nuclear core entities in 1000 binucleated cells per well, which corresponds to 2000 cells examined by test substance dose. Micronuclei were identified as small nuclei well differentiated from cell nucleus, stained in the same manner and having a diameter less than one third of that of the cell nucleus.
Micronuclei rates obtained for different doses of test substances were compared to the negative control by a χ2 test. The assay was considered positive if: • A dose-response relationship was obtained between the rate of micronuclei and the doses tested, • At least one of these doses induced a statistically significant increase (P<0.05) in the number of micronucleated cells as compared to the negative control.

[12] = tested on: Plasmodium falciparum W2; assay: Plasmodium falciparum susceptibility assay, first round (SYBR Green I); format: cell-based; conditions: W2, first round, 48-h incubation, strain resistant to CQ, sensitive to MQ, read-out: IC50 (nM) Plasmodium falciparum W2 (converted)
[13] = tested on: S. typhimurium TA98; assay: Bacterial reverse mutation assay (Ames test)

IC50 [1]: 181 nM
IC50 [2]: 1460 nM
Structure (SMILES): O[C@@H](CNCCCCCCF)c1ccc(-c2ccc(C(F)(F)F)cc2)nc1C(F)(F)F [Compound 30t]

Structure (SMILES): O[C@H](c1cc(C(F)(F)F)nc2c(C(F)(F)F)cccc12)[C@@H]1CCCCN1 [(+)-mefloquine]
factor by which more active than the other mefloquine isomer [3]: 1.6-1.8

Structure (SMILES): CCCCCNC[C@@H](O)c1ccc(-c2ccc(C(F)(F)F)cc2)nc1C(F)(F)F [Compound 30c, (S)-2-(Pentylamino)-1-(2-(trifluoromethyl)-6-(4-(trifluoromethyl)phenyl)pyridin-3-yl)ethanol]
mutagenic activity in Salmonella strains (revertant rates) [4]: No significant increase in revertant rates
IC50 [5]: 232 ± 17 nM
Number of revertants by plate (Means ± SD), TA102 ([6]; with S9 mix, 0.4 μg/plate): 346 ± 8^NS
Number of revertants by plate (Means ± SD), TA102 ([6]; with S9 mix, 0.6 μg/plate): 349 ± 12^NS
Number of revertants by plate (Means ± SD), TA102 ([6]; with S9 mix, 0.8 μg/plate): 368 ± 11^NS
Number of revertants by plate (Means ± SD), TA102 ([6]; with S9 mix, 1 μg/plate): 359 ± 6^NS
Number of revertants by plate (Means ± SD), TA102 ([6]; without S9 mix, 0.4 μg/plate): 298 ± 21^NS
Number of revertants by plate (Means ± SD), TA102 ([6]; without S9 mix, 0.6 μg/plate): 319 ± 14^NS
Number of revertants by plate (Means ± SD), TA102 ([6]; without S9 mix, 0.8 μg/plate): 331 ± 17^NS
Number of revertants by plate (Means ± SD), TA102 ([6]; without S9 mix, 1 μg/plate): 339 ± 12^NS
Number of revertants by plate (Means ± SD), TA97a ([7]; with S9 mix, 0.4 μg/plate): 128 ± 10^NS
Number of revertants by plate (Means ± SD), TA97a ([7]; with S9 mix, 0.6 μg/plate): 134 ± 8^NS
Number of revertants by plate (Means ± SD), TA97a ([7]; with S9 mix, 0.8 μg/plate): 137 ± 11^NS
Number of revertants by plate (Means ± SD), TA97a ([7]; with S9 mix, 1 μg/plate): 125 ± 8^NS
Number of revertants by plate (Means ± SD), TA97a ([7]; without S9 mix, 0.4 μg/plate): 148 ± 8^NS
Number of revertants by plate (Means ± SD), TA97a ([7]; without S9 mix, 0.6 μg/plate): 155 ± 6^NS
Number of revertants by plate (Means ± SD), TA97a ([7]; without S9 mix, 0.8 μg/plate): 159 ± 8^NS
Number of revertants by plate (Means ± SD), TA97a ([7]; without S9 mix, 1 μg/plate): 138 ± 8^NS
Number of revertants by plate (Means ± SD), TA100 ([8]; with S9 mix, 0.4 μg/plate): 202 ± 8^NS
Number of revertants by plate (Means ± SD), TA100 ([8]; with S9 mix, 0.6 μg/plate): 183 ± 12^NS
Number of revertants by plate (Means ± SD), TA100 ([8]; with S9 mix, 0.8 μg/plate): 178 ± 11^NS
Number of revertants by plate (Means ± SD), TA100 ([8]; with S9 mix, 1 μg/plate): 168 ± 12^NS
Number of revertants by plate (Means ± SD), TA100 ([8]; without S9 mix, 0.4 μg/plate): 197 ± 6^NS
Number of revertants by plate (Means ± SD), TA100 ([8]; without S9 mix, 0.6 μg/plate): 201 ± 9^NS
Number of revertants by plate (Means ± SD), TA100 ([8]; without S9 mix, 0.8 μg/plate): 211 ± 12^NS
Number of revertants by plate (Means ± SD), TA100 ([8]; without S9 mix, 1 μg/plate): 206 ± 14^NS
in vitro micronucleus assay result (clastogenic and/or aneugenic activities) [9]: negative results
Number of revertants by plate (Means ± SD), TA1535 ([10]; with S9 mix, 0.4 μg/plate): 22 ± 5^NS
Number of revertants by plate (Means ± SD), TA1535 ([10]; with S9 mix, 0.6 μg/plate): 26 ± 6^NS
Number of revertants by plate (Means ± SD), TA1535 ([10]; with S9 mix, 0.8 μg/plate): 25 ± 8^NS
Number of revertants by plate (Means ± SD), TA1535 ([10]; with S9 mix, 1 μg/plate): 26 ± 7^NS
Number of revertants by plate (Means ± SD), TA1535 ([10]; without S9 mix, 0.4 μg/plate): 26 ± 3^NS
Number of revertants by plate (Means ± SD), TA1535 ([10]; without S9 mix, 0.6 μg/plate): 25 ± 4^NS
Number of revertants by plate (Means ± SD), TA1535 ([10]; without S9 mix, 0.8 μg/plate): 28 ± 8^NS
Number of revertants by plate (Means ± SD), TA1535 ([10]; without S9 mix, 1 μg/plate): 25 ± 6^NS
BI (binucleated cells) ([11]; 5 μM): 432
CBPI (Cytokinesis-Blocked Proliferative Index) ([11]; 5 μM): 1.86
CI % (cytostasis index) ([11]; 5 μM): 5%
MNC1 (micronucleated cell rate) ([11]; 5 μM): 8 ‰
MNC2 (micronucleated cell rate) ([11]; 5 μM): 12 ‰
MNC-M (mean of micronucleated cell rates) ([11]; 5 μM): 10 ± 2.8 ‰
MONO (mononucleated cells) ([11]; 5 μM): 68
BI (binucleated cells) ([11]; 10 μM): 331
CBPI (Cytokinesis-Blocked Proliferative Index) ([11]; 10 μM): 1.66
CI % (cytostasis index) ([11]; 10 μM): 27%
MNC1 (micronucleated cell rate) ([11]; 10 μM): 9 ‰
MNC2 (micronucleated cell rate) ([11]; 10 μM): 11 ‰
MNC-M (mean of micronucleated cell rates) ([11]; 10 μM): 10 ± 1.4 ‰
MONO (mononucleated cells) ([11]; 10 μM): 169
BI (binucleated cells) ([11]; 50 μM): 218
CBPI (Cytokinesis-Blocked Proliferative Index) ([11]; 50 μM): 1.42
CI % (cytostasis index) ([11]; 50 μM): 52%
MNC1 (micronucleated cell rate) ([11]; 50 μM): 10 ‰
MNC2 (micronucleated cell rate) ([11]; 50 μM): 12 ‰
MNC-M (mean of micronucleated cell rates) ([11]; 50 μM): 11 ± 1.4 ‰
MONO (mononucleated cells) ([11]; 50 μM): 282
IC50 [12]: 24.4 nM
Number of revertants by plate (Means ± SD), TA98 ([13]; with S9 mix, 0.4 μg/plate): 34 ± 6^NS
Number of revertants by plate (Means ± SD), TA98 ([13]; with S9 mix, 0.6 μg/plate): 38 ± 5^NS
Number of revertants by plate (Means ± SD), TA98 ([13]; with S9 mix, 0.8 μg/plate): 28 ± 4^NS
Number of revertants by plate (Means ± SD), TA98 ([13]; with S9 mix, 1 μg/plate): 26 ± 6^NS
Number of revertants by plate (Means ± SD), TA98 ([13]; without S9 mix, 0.4 μg/plate): 35 ± 3^NS
Number of revertants by plate (Means ± SD), TA98 ([13]; without S9 mix, 0.6 μg/plate): 33 ± 2^NS
Number of revertants by plate (Means ± SD), TA98 ([13]; without S9 mix, 0.8 μg/plate): 34 ± 5^NS
Number of revertants by plate (Means ± SD), TA98 ([13]; without S9 mix, 1 μg/plate): 32 ± 6^NS

IC50 [1]: 97.1 nM
IC50 [2]: 421 nM
Structure (SMILES): O[C@H](CNCCCCCCF)c1ccc(-c2ccc(C(F)(F)F)cc2)nc1C(F)(F)F [Compound 30s]
